Assay in all cases: HotSpot kinase profiling
Common to all, as to type: biochemical

Assay [1] deals with T1, EPHA6 (Homo sapiens, UniProt Q9UF33).
T1 construct: purchased Reaction Biology Corp
T1 sequence (Q9UF33 23-1036): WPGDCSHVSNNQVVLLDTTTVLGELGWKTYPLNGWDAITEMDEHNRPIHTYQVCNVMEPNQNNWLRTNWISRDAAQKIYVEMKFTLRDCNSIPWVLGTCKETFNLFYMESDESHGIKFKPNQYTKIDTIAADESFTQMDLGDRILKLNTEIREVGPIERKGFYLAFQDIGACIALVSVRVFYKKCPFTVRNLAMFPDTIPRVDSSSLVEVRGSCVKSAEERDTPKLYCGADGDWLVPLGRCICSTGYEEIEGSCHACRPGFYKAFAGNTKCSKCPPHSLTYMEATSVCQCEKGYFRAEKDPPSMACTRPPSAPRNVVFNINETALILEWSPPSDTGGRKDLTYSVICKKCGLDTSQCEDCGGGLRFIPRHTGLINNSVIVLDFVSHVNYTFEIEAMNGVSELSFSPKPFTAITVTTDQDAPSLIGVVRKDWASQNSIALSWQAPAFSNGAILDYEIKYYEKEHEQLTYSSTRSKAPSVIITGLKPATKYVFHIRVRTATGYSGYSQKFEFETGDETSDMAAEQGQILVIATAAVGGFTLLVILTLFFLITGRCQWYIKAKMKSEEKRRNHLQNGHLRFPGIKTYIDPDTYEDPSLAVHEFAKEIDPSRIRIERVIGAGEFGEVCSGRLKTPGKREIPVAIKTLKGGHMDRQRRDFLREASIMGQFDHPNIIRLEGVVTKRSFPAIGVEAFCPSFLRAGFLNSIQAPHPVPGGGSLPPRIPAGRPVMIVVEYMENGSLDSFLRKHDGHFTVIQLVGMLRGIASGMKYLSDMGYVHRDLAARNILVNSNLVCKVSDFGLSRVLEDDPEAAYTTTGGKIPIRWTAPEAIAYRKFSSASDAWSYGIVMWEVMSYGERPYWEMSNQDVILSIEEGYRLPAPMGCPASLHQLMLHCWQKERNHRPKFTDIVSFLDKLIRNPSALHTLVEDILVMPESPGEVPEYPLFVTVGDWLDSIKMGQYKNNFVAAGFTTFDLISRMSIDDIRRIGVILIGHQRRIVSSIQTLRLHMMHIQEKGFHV
In short, it runs like this:
(§1)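 Radio-isotope P81 filtration format. Substrate + required cofactors in reaction buffer, kinase added, 2 h RT. Stop, wash with 0.1% phosphoric acid, detect. % inhibition vs DMSO; mean of duplicates where repeated.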

Assay [2] deals with T2, MST2/STK3 (Homo sapiens, UniProt Q13188).
T2 construct: purchased Reaction Biology Corp
T2 sequence (Q13188 1-491): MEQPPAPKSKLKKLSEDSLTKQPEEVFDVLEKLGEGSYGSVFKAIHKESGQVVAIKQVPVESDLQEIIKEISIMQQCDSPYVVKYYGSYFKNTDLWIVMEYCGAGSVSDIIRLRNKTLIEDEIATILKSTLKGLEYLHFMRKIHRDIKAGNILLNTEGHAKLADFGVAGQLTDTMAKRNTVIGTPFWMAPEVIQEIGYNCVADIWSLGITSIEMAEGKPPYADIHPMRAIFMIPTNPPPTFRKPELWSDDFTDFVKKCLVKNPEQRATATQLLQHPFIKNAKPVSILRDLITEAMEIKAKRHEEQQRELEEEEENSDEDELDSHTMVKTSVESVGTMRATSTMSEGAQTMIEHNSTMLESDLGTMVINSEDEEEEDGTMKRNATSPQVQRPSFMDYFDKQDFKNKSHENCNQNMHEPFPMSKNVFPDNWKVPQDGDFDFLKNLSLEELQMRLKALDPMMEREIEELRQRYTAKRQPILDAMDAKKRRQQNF
In short, it runs like this:
as §1

Assay [3] addresses T3, NEK5 (Homo sapiens, UniProt Q6P3R8).
T3 construct: purchased Reaction Biology Corp
T3 sequence (Q6P3R8 1-708): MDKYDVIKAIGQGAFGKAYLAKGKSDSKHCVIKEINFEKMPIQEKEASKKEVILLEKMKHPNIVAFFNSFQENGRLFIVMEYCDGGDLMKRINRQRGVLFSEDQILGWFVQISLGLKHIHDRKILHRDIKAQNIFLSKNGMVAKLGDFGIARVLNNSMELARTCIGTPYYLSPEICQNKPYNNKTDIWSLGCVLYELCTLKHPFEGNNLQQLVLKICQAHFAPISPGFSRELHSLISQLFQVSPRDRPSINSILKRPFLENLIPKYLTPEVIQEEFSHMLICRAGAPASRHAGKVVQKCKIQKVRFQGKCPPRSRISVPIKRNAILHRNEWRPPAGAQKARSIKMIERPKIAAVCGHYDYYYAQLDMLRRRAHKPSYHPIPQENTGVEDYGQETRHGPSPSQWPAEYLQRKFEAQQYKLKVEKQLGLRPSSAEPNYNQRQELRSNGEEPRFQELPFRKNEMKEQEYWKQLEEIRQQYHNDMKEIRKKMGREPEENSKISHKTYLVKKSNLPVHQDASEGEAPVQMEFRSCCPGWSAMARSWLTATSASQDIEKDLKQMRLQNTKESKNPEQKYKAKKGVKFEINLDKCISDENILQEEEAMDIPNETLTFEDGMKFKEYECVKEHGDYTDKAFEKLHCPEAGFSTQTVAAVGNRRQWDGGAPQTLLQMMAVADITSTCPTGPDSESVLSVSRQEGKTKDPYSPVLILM
In short, it runs like this:
as §1

Setting [4] is: read-out: % Enzyme Activity (relative to DMSO controls) Run 1.
Where [5] appears, read: read-out: % Enzyme Activity (relative to DMSO controls) Run 2.

Read-outs that look alike come from different tables or passages of the source.

Consider `C=CC(=O)Nc1cccc(Nc2nc(Nc3ccc(OCCOC)c(F)c3)ncc2F)c1` [Compound 2], for which the inhibition at 3 µM is 1.24% in assay [1], 10.1% in assay [2] and 39.4% in assay [3]. The remaining activity at 3 µM in assay [1] (setting [4]) was 95.5%; in assay [1] (setting [5]), 102%; in assay [2] (setting [4]), 91.1%; in assay [2] (setting [5]), 88.6%; in assay [3] (setting [4]) it was 60.2%; in assay [3] (setting [5]) it was 60.9%.

These data come from US9492471B2, “Methods of treating a disease or disorder associated with Bruton'S Tyrosine Kinase” (Celgene Avilomics Research, Inc., priority 2013, dated 2016).
